# From patent publication US9169254B2, “Spiroimidazolone derivative” (Chugai Seiyaku Kabushiki Kaisha, priority 2009, dated 2015)
# Counter-ions that a name gives are not always drawn.
# Biological target: T1, human PTH1 receptor (Homo sapiens, UniProt Q03431)
# T1 sequence (Q03431 27-593): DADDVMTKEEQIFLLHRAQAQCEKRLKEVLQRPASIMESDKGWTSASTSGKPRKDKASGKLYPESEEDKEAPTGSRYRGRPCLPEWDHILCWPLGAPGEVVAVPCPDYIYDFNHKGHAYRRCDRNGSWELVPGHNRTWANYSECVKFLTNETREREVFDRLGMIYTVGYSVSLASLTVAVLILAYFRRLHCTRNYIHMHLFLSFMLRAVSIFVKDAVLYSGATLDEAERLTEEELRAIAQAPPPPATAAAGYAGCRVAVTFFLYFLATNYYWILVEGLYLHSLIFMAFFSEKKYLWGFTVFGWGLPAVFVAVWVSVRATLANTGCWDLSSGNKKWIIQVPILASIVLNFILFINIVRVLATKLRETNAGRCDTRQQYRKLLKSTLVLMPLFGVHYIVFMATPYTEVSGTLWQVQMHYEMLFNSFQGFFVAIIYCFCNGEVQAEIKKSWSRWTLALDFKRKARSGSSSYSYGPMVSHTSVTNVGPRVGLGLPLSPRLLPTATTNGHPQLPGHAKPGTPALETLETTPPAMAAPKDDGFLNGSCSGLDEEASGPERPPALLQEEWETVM
# Experiment: In vitro cAMP signal activity in HKRK-B7 cells (LLC-PK1 cells overexpressing the human PTH1 receptor)
# Format: cell-based
# Settings: HKRK-B7 cells; compound at 1×10^−3 M; […]; 0.1 µM
row,SMILES,cAMP production activity (%)
1,"Cc1cc(C(=O)N2CCNCC2)cc(C)c1/C=C/S(=O)(=O)N1CCC2(CC1)N=C(c1cccc(OC(F)(F)F)c1)NC2=O [Compound 446, 8-{(E)-2-[2,6-dimethyl-4-(piperazine-1-carbonyl)-phenyl]-ethenesulfonyl}-2-(3-trifluoromethoxy-phenyl)-1,3,8-triaza-spiro[4.5]dec-1-en-4-one hydrochloride]",49%
2,"CNN(C)C(=O)c1cc(C)c(CCS(=O)(=O)N2CCC3(CC2)N=C(C2CCC(CCC(F)(F)F)CC2)NC3=O)c(C)c1 (stereo not drawn) [Compound 888, 3,5-Dimethyl-4-(2-{4-oxo-2-[4-(3,3,3-trifluoro-propyl)-cyclohexyl]-1,3,8-triaza-spiro[4.5]dec-1-ene-8-sulfonyl}-ethyl)-benzoic acid N,N′-dimethyl-hydrazide]",86%

# Same assay, conditions: HKRK-B7 cells; compound at 1×10^−3 M; cAMP produced as percentage of that produced by hPTH(1-34) at 100 nM
row,SMILES,cAMP production activity (%)
1,"CC(=O)Nc1ccc(CCS(=O)(=O)N2CCC3(CC2)N=C(C2CCC(C)CC2)NC3=O)c(OC(C)C)c1 (stereo not drawn) [Compound 812, N-(3-isopropoxy-4-{2-[2-(4-methyl-cyclohexyl)-4-oxo-1,3,8-triaza-spiro[4.5]dec-1-ene-8-sulfonyl]-ethyl}-phenyl)-acetamide]",105%
2,"Cc1cc(NCCO)ccc1CCS(=O)(=O)N1CCC2(CC1)N=C(c1cccc(C(F)(F)F)c1)NC2=O [Compound 160, 8-{2-[4-(2-hydroxy-ethylamino)-2-methyl-phenyl]-ethanesulfonyl}-2-(3-trifluoromethyl-phenyl)-1,3,8-triaza-spiro[4.5]dec-1-en-4-one]",65%
3,"Cc1cc(N(C)C(N)=O)cc(C)c1CCS(=O)(=O)N1CCC2(CC1)N=C(CCCCCCCCCCCCCC(N)=O)NC2=O [Compound 1176, 14-(8-{2-[2,6-dimethyl-4-(1-methyl-ureido)-phenyl]-ethanesulfonyl}-4-oxo-1,3,8-triaza-spiro[4.5]dec-1-en-2-yl)-tetradecanoic acid amide]",82%
4,Cc1cc2ccc1CCS(=O)(=O)N1CCC3(CC1)N=C(NC3=O)c1cc(cc(C(F)(F)F)c1)OCC/C=C/COCCN(CCO)C2=O [Compound 1428],67%
5,"Cc1cc(N2C(=O)CNC2=O)ccc1CCS(=O)(=O)N1CCC2(CC1)N=C([C@H]1CC[C@H](CC=C(F)F)CC1)NC2=O [Compound 946, 3-[4-(2-{2-[4-(3,3-difluoro-allyl)-cyclohexyl]-4-oxo-1,3,8-triaza-spiro[4.5]dec-1-ene-8-sulfonyl}-ethyl)-3-methyl-phenyl]-imidazolidine-2,4-dione]",102%
6,"CCc1cc(N(C)C(N)=O)ccc1CCS(=O)(=O)N1CCC2(CC1)N=C(C1CCC(C)CC1)NC2=O (stereo not drawn) [Compound 829, 1-(3-ethyl-4-{2-[2-(4-methyl-cyclohexyl)-4-oxo-1,3,8-triaza-spiro[4.5]dec-1-ene-8-sulfonyl]-ethyl}-phenyl)-1-methyl-urea]",79%
7,"Cc1cc(C(=O)N(C)C)ccc1CCS(=O)(=O)N1CCC2(CC1)N=C(C1(C(F)(F)F)CCCC1)NC2=O [Compound 138, 3,N,N-trimethyl-4-{2-[4-oxo-2-(1-trifluoromethyl-cyclopentyl)-1,3,8-triaza-spiro[4.5]dec-1-ene-8-sulfonyl]-ethyl}-benzamide]",49%
8,"CC(C)(C)CCN1CCCC(C2=NC3(CCN(S(=O)(=O)c4cccc(Cl)c4)CC3)C(=O)N2)C1 (stereo not drawn) [Compound 453, 8-(3-Chloro-benzenesulfonyl)-2-[1-(3,3-dimethyl-butyl)-piperidin-3-yl]-1,3,8-triaza-spiro[4.5]dec-1-en-4-one]",16%
9,"Cc1cc(N(CCO)S(C)(=O)=O)ccc1/C=C/S(=O)(=O)N1CCC2(CC1)N=C(c1cccc(OC(F)(F)F)c1)NC2=O [Compound 719, N-(2-Hydroxy-ethyl)-N-(3-methyl-4-{(E)-2-[4-oxo-2-(3-trifluoromethoxy-phenyl)-1,3,8-triaza-spiro[4.5]dec-1-ene-8-sulfonyl]-vinyl}-phenyl)-methanesulfonamide]",77%
10,Cc1cc2ccc1CCS(=O)(=O)N1CCC3(CC1)N=C(NC3=O)c1cc(cc(C(F)(F)F)c1)OCCCCCO[C@H]1CN(C[C@@H]1O)C2=O [Compound 1425],32%
11,"CC(C)(C)OC(=O)N1CCCC(C2=NC3(CCN(S(=O)(=O)c4cccc(Cl)c4)CC3)C(=O)N2)C1 (stereo not drawn) [Compound 18, 3-[8-(3-chloro-benzenesulfonyl)-4-oxo-1,3,8-triaza-spiro[4.5]dec-1-en-2-yl]-piperidine-1-carboxylic acid tert-butyl ester]",44%
12,"Cc1cc(N2C(=O)NC(C)(C)C2=O)cc(C)c1CCS(=O)(=O)N1CCC2(CC1)N=C(C1CCC(C)CC1)NC2=O (stereo not drawn) [Compound 869, 3-(3,5-dimethyl-4-{2-[2-(4-methyl-cyclohexyl)-4-oxo-1,3,8-triaza-spiro[4.5]dec-1-ene-8-sulfonyl]-ethyl}-phenyl)-5,5-dimethyl-imidazolidine-2,4-dione]",65%
13,"Cc1cc(C(=O)N(C)C)ccc1CCS(=O)(=O)N1CCC2(CC1)N=C(CC1CCCCC1)NC2=O [Compound 103, 4-[2-(2-cyclohexylmethyl-4-oxo-1,3,8-triaza-spiro[4.5]dec-1-ene-8-sulfonyl)-ethyl]-3,N,N-trimethyl-benzamide]",80%
14,Cc1cc2ccc1CCS(=O)(=O)N1CCC3(CC1)N=C(NC3=O)c1cc(cc(C(F)(F)F)c1)OCC/C=C/CNC(=O)CN(C)C2=O [Compound 1422],15%
15,"Cc1cc(C(=O)N2CCS(=O)(=O)CC2)cc(C)c1/C=C/S(=O)(=O)N1CCC2(CC1)N=C(C1CCC(C)CC1)NC2=O (stereo not drawn) [Compound 1002, 8-{(E)-2-[4-(1,1-dioxo-1λ^6-thiomorpholine-4-carbonyl)-2,6-dimethyl-phenyl]-ethenesulfonyl}-2-(4-methyl-cyclohexyl)-1,3,8-triaza-spiro[4.5]dec-1-en-4-one]",50%
16,"CC(=O)N(C)c1cccc(CCS(=O)(=O)N2CCC3(CC2)N=C(c2cccc(OC(F)(F)F)c2)NC3=O)c1C [Compound 264, N-methyl-N-(2-methyl-3-{2-[4-oxo-2-(3-trifluoromethoxy-phenyl)-1,3,8-triaza-spiro[4.5]dec-1-ene-8-sulfonyl]-ethyl}-phenyl)-acetamide]",69%
17,"CC(=O)NCCc1ccc(/C=C/S(=O)(=O)N2CCC3(CC2)N=C(C2CCCCC2)NC3=O)cc1 [Compound 481, N-(2-{4-[(E)-2-(2-cyclohexyl-4-oxo-1,3,8-triaza-spiro[4.5]dec-1-ene-8-sulfonyl)-vinyl]-phenyl}-ethyl)-acetamide]",59%
18,"Cc1c(CCS(=O)(=O)N2CCC3(CC2)N=C(C2CCC(C)CC2)NC3=O)ccc(N(C)C(N)=O)c1C (stereo not drawn) [Compound 679, 1-(2,3-Dimethyl-4-{2-[2-(4-methyl-cyclohexyl)-4-oxo-1,3,8-triaza-spiro[4.5]dec-1-ene-8-sulfonyl]-ethyl}-phenyl)-1-methyl-urea]",65%
19,Cc1cc(C(=O)N2CCN(C3CCN(C)CC3)CC2)ccc1CCS(=O)(=O)N1CCC2(CC1)N=C(c1cccc(C(F)(F)F)c1)NC2=O [Compound 958],49%
20,"CCCCCCCCCC1=NC2(CCN(S(=O)(=O)CCc3c(C)cc(OCCC(O)CO)cc3C)CC2)C(=O)N1 (stereo not drawn) [Compound 798, 8-{2-[4-(3,4-dihydroxy-butoxy)-2,6-dimethyl-phenyl]-ethanesulfonyl}-2-nonyl-1,3,8-triaza-spiro[4.5]dec-1-en-4-one]",101%
21,"Cc1cc(C(=O)N(C)C)ccc1CCS(=O)(=O)N1CCC2(CC1)N=C(c1ccc(F)c(C(F)(F)F)c1)NC2=O [Compound 107, 4-{2-[2-(4-fluoro-3-trifluoromethyl-phenyl)-4-oxo-1,3,8-triaza-spiro[4.5]dec-1-ene-8-sulfonyl]-ethyl}-3,N,N-trimethyl-benzamide]",110%
22,"CCCC1=NC2(CCN(S(=O)(=O)c3cccc(Cl)c3)CC2)C(=O)N1 [Compound 3, 8-(3-chloro-benzenesulfonyl)-2-propyl-1,3,8-triaza-spiro[4.5]dec-1-en-4-one]",20%
23,"CC(C)C1=NC2(CCN(S(=O)(=O)c3cccc(Cl)c3)CC2)C(=O)N1 [Compound 4, 8-(3-chloro-benzenesulfonyl)-2-isopropyl-1,3,8-triaza-spiro[4.5]dec-1-en-4-one]",11%
24,"O=C1NC(C2CCCCC2)=NC12CCN(S(=O)(=O)CCCc1cccc(O)c1)CC2 [Compound 317, 2-cyclohexyl-8-[3-(3-hydroxy-phenyl)-propane-1-sulfonyl]-1,3,8-triaza-spiro[4.5]dec-1-en-4-one]",62%
25,"Cc1cc(C(=O)N2CCC(C)(O)CC2)cc(C)c1/C=C/[S@TB4](=O)(=O)N1CCC2(CC1)N=C(c1cccc(CC(F)(F)F)c1)NC2=O [Compound 1097, 8-{(E)-2-[4-(4-hydroxy-4-methyl-piperidine-1-carbonyl)-2,6-dimethyl-phenyl]-ethenesulfonyl}-2-[3-(2,2,2-trifluoro-ethyl)-phenyl]-1,3,8-triaza-spiro[4.5]dec-1-en-4-one]",90%
